Measurements taken from patent US11021457B2, “Class of isoindolone-imide ring-1,3-dione-2-ene compounds, composition and use thereof” (WIGEN BIOMEDICINE TECHNOLOGY (SHANGHAI) CO., LTD., priority 2017, dated 2021).

Tests used:
Format in all cases: cell-based
SU-DHL6 = experiment: Inhibition of tumor cell proliferation, CellTiter-Glo, SU-DHL6; details: compound concentration 50 μM, 72 hours; for cell survival rate (% of control) at 50 µM: Homo sapiens, SU-DHL-6, read-out: Inhibitory activity against proliferation (cell survival rate) SU-DHL6
Procedure, shortened: (§1)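 Activity is graded from survival at 50 μM: + for 60 to under 90%, ++ for over 30 to 60%, +++ for 30% or less. Survival was measured luminescently (CellTiter-Glo) 72 h after dosing, relative to untreated and blank wells; 2000-10000 cells/well, 37° C, 5% CO2.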

BxPC-3 = experiment: Inhibition of tumor cell proliferation, CellTiter-Glo, BxPC-3; details: compound concentration 50 μM, 72 hours; for cell survival rate (%) at 50 µM: Homo sapiens, BXPC-3, read-out: Inhibitory activity against proliferation (cell survival rate) BxPC-3
Procedure, shortened: as §1

RPMI-8226 = experiment: Inhibition of tumor cell proliferation, CellTiter-Glo, RPMI-8226; details: compound concentration 50 μM, 72 hours; for cell survival rate (% of control) at 50 µM: Homo sapiens, RPMI-8226, read-out: Inhibitory activity against proliferation (cell survival rate) RPMI-8226
Procedure, shortened: as §1

A549 = experiment: Inhibition of tumor cell proliferation, CellTiter-Glo, A549; details: compound concentration 50 μM, 72 hours; for cell survival rate (% of control) at 50 µM: Homo sapiens, A549, read-out: Inhibitory activity against proliferation (cell survival rate) A549
Procedure, shortened: as §1

MDA-MB-453 = experiment: Inhibition of tumor cell proliferation, CellTiter-Glo, MDA-MB-453; details: compound concentration 50 μM, 72 hours; for cell survival rate (%) at 50 µM: Homo sapiens, MDA-MB-453, read-out: Inhibitory activity against proliferation (cell survival rate) MDA-MB-453
Procedure, shortened: as §1

K562 = experiment: Inhibition of tumor cell proliferation, CellTiter-Glo, K562; details: compound concentration 50 μM, 72 hours; for cell survival rate (%) at 50 µM: Homo sapiens, K562, read-out: Inhibitory activity against proliferation (cell survival rate) K562
Procedure, shortened: as §1

| SMILES | Inhibitory activity against proliferation (cell survival rate) SU-DHL6 (SU-DHL6) | Inhibitory activity against proliferation (cell survival rate) BxPC-3 (BxPC-3) | Inhibitory activity against proliferation (cell survival rate) RPMI-8226 (RPMI-8226) | Inhibitory activity against proliferation (cell survival rate) A549 (A549) | Inhibitory activity against proliferation (cell survival rate) MDA-MB-453 (MDA-MB-453) | Inhibitory activity against proliferation (cell survival rate) K562 (K562) | cell survival rate (% of control) at 50 µM (SU-DHL6) [%] | cell survival rate (%) at 50 µM (BxPC-3) [%] | cell survival rate (% of control) at 50 µM (RPMI-8226) [%] | cell survival rate (% of control) at 50 µM (A549) [%] | cell survival rate (%) at 50 µM (MDA-MB-453) [%] | cell survival rate (%) at 50 µM (K562) [%] |
| --- | --- | --- | --- | --- | --- | --- | --- | --- | --- | --- | --- | --- |
| COc1ccc(C2CC(=O)C(=CNc3cccc4c3CN(C3CCC(=O)NC3=O)C4=O)C(=O)C2)c(OC)c1 (stereo not drawn) [Compound 40] | + (60≤survival rate (%)<90) | ++ (30<survival rate (%)≤60) | + (60≤survival rate (%)<90) | +++ (survival rate (%)≤30) | + (60≤survival rate (%)<90) | +++ (survival rate (%)≤30) | – | – | – | – | – | – |
| O=C1CCC(N2Cc3c(N/C=C4\C(=O)CC(c5ccccc5)NC4=O)cccc3C2=O)C(=O)N1 (stereo not drawn) [Compound 126] | – | – | – | – | – | – | 60 to 90 | 30 to 60 | ≤ 30 | 60 to 90 | 60 to 90 | 60 to 90 |
| O=C1CCC(N2C(=O)c3cccc(NC(=O)CN4CCN(CCNC=C5C(=O)CC(c6ccccc6)CC5=O)CC4)c3C2=O)C(=O)N1 (stereo not drawn) [Compound 55] | +++ (survival rate (%)≤30) | + (60≤survival rate (%)<90) | ++ (30<survival rate (%)≤60) | +++ (survival rate (%)≤30) | ++ (30<survival rate (%)≤60) | + (60≤survival rate (%)<90) | – | – | – | – | – | – |
| O=C1CCC(N2C(=O)c3cccc(NCCN4CCN(CCNC=C5C(=O)CC(c6ccccc6)CC5=O)CC4)c3C2=O)C(=O)N1 (stereo not drawn) [Compound 109] | + (60≤survival rate (%)<90) | ++ (30<survival rate (%)≤60) | +++ (survival rate (%)≤30) | ++ (30<survival rate (%)≤60) | + (60≤survival rate (%)<90) | ++ (30<survival rate (%)≤60) | – | – | – | – | – | – |
| O=C1CCC(N2Cc3c(NC(=O)Nc4ccccc4OC(=O)CCC(=O)OCCN4CCN(CCNC=C5C(=O)CC(c6ccccc6)CC5=O)CC4)cccc3C2=O)C(=O)N1 (stereo not drawn) [Compound 81] | +++ (survival rate (%)≤30) | + (60≤survival rate (%)<90) | + (60≤survival rate (%)<90) | +++ (survival rate (%)≤30) | ++ (30<survival rate (%)≤60) | +++ (survival rate (%)≤30) | – | – | – | – | – | – |
| O=C1CC(c2ccccc2)CC(=O)C1=CNCCN1CCC(C(=O)N2C(=O)CCC(N3C(=O)c4ccccc4C3=O)C2=O)CC1 (stereo not drawn) [Compound 102] | ++ (30<survival rate (%)≤60) | + (60≤survival rate (%)<90) | +++ (survival rate (%)≤30) | +++ (survival rate (%)≤30) | +++ (survival rate (%)≤30) | +++ (survival rate (%)≤30) | – | – | – | – | – | – |
| O=C1CCC(N2Cc3c(NC(=O)c4cnc(NC=C5C(=O)CC(c6ccccc6)CC5=O)s4)cccc3C2=O)C(=O)N1 (stereo not drawn) [Compound 62] | ++ (30<survival rate (%)≤60) | ++ (30<survival rate (%)≤60) | +++ (survival rate (%)≤30) | ++ (30<survival rate (%)≤60) | +++ (survival rate (%)≤30) | + (60≤survival rate (%)<90) | – | – | – | – | – | – |
| O=C1CCC(N2Cc3c(NC=C4C(=O)CC(c5c6ccccc6cc6ccccc56)CC4=O)cccc3C2=O)C(=O)N1 (stereo not drawn) [Compound 30] | +++ (survival rate (%)≤30) | + (60≤survival rate (%)<90) | +++ (survival rate (%)≤30) | +++ (survival rate (%)≤30) | +++ (survival rate (%)≤30) | +++ (survival rate (%)≤30) | – | – | – | – | – | – |
| O=C1CCC(N2Cc3c(NC=C4C(=O)CC(c5cccc6ccccc56)CC4=O)cccc3C2=O)C(=O)N1 (stereo not drawn) [Compound 29] | ++ (30<survival rate (%)≤60) | ++ (30<survival rate (%)≤60) | +++ (survival rate (%)≤30) | +++ (survival rate (%)≤30) | +++ (survival rate (%)≤30) | +++ (survival rate (%)≤30) | – | – | – | – | – | – |
| O=C1CCC(N2Cc3c(NC(=O)c4cccnc4NC=C4C(=O)CC(c5ccccc5)CC4=O)cccc3C2=O)C(=O)N1 (stereo not drawn) [Compound 67] | +++ (survival rate (%)≤30) | + (60≤survival rate (%)<90) | +++ (survival rate (%)≤30) | +++ (survival rate (%)≤30) | ++ (30<survival rate (%)≤60) | +++ (survival rate (%)≤30) | – | – | – | – | – | – |
| O=C1CCC(N2Cc3c(NC=C4C(=O)CC(c5nccs5)CC4=O)cccc3C2=O)C(=O)N1 (stereo not drawn) [Compound 111] | – | – | – | – | – | – | ≤ 30 | 60 to 90 | ≤ 30 | 60 to 90 | ≤ 30 | ≤ 30 |
| O=C1CCC(N2Cc3c(N/C=C4\C(=O)CC(Cc5ccccc5)C4=O)cccc3C2=O)C(=O)N1 (stereo not drawn) [Compound 121] | – | – | – | – | – | – | ≤ 30 | 60 to 90 | ≤ 30 | 60 to 90 | 30 to 60 | 30 to 60 |
| O=C1CCC(N2Cc3c(NC=C4C(=O)CC(COc5ccccc5)CC4=O)cccc3C2=O)C(=O)N1 (stereo not drawn) [Compound 118] | + (60≤survival rate (%)<90) | + (60≤survival rate (%)<90) | + (60≤survival rate (%)<90) | + (60≤survival rate (%)<90) | + (60≤survival rate (%)<90) | ++ (30<survival rate (%)≤60) | – | – | – | – | – | – |
| O=C1CCC(N2Cc3c(NCCN4CCN(CCNC=C5C(=O)CC(c6ccccc6)CC5=O)CC4)cccc3C2=O)C(=O)N1 (stereo not drawn) [Compound 107] | + (60≤survival rate (%)<90) | + (60≤survival rate (%)<90) | +++ (survival rate (%)≤30) | +++ (survival rate (%)≤30) | ++ (30<survival rate (%)≤60) | +++ (survival rate (%)≤30) | – | – | – | – | – | – |
| O=C1CC(c2ccccc2)CC(=O)C1=CNCCN1CCN(CCOC(=O)N2C(=O)CCC(N3C(=O)c4ccccc4C3=O)C2=O)CC1 (stereo not drawn) [Compound 103] | +++ (survival rate (%)≤30) | + (60≤survival rate (%)<90) | + (60≤survival rate (%)<90) | +++ (survival rate (%)≤30) | +++ (survival rate (%)≤30) | + (60≤survival rate (%)<90) | – | – | – | – | – | – |
| O=C1CCC(N2Cc3c(NC(=O)c4ccc(CN5CCN(CCNC=C6C(=O)CC(c7ccccc7)CC6=O)CC5)cc4)cccc3C2=O)C(=O)N1 (stereo not drawn) [Compound 92] | +++ (survival rate (%)≤30) | + (60≤survival rate (%)<90) | +++ (survival rate (%)≤30) | + (60≤survival rate (%)<90) | ++ (30<survival rate (%)≤60) | + (60≤survival rate (%)<90) | – | – | – | – | – | – |
| O=C1CCC(N2C(=O)c3cccc(NC(=O)c4ccc(CN5CCN(CCNC=C6C(=O)CC(c7ccccc7)CC6=O)CC5)cc4)c3C2=O)C(=O)N1 (stereo not drawn) [Compound 94] | +++ (survival rate (%)≤30) | + (60≤survival rate (%)<90) | +++ (survival rate (%)≤30) | +++ (survival rate (%)≤30) | +++ (survival rate (%)≤30) | +++ (survival rate (%)≤30) | – | – | – | – | – | – |
